Assays:
IRAK4 = IRAK4 (Homo sapiens (Human), UniProt Q9NWZ3); assay: IRAK4 Inhibition Assay; assay type: biochemical; details: IRAK4 Inhibition Assay; ATP 500 μM; read-out: IRAK4 IC50
Method: The assays were performed in U-bottom 384-well plates. […] The reaction was initiated by the combination of IRAK4 with substrates and test compounds. The reaction mixture was incubated at room temperature for 60 min. and terminated by adding 45 μL of 35 mM EDTA to each sample. The reaction mixture was analyzed on the Caliper LABCHIP® 3000 (Caliper, Hopkinton, Mass.) by electrophoretic separation of the fluorescent substrate and phosphorylated product.

[1] = system: TLR2 induced IL-6 in peripheral blood mononuclear cells (PBMCs); assay: PBMC TLR2 Induced IL-6 Assay; assay type: cell-based, human; details: Homo sapiens, PBMC, PBMC TLR2 Induced IL-6 Assay, lipoteichoic acid stimulation, IL-6 by ELISA; for EC50: read-out: Cell EC50; for IC50: read-out: Cell IC50
Summary of the method: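 Lipoteichoic acid at 10 µg/ml served as TLR2 stimulus for 5 hours, following a 30-minute compound pretreatment at 37° C. Cells were Ficoll-isolated human PBMCs, 250000 cells/well, cultured in RPMI plus 10% heat-inactivated FCS.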

Sequence of IRAK4 (Q9NWZ3 whole entry, species assumed): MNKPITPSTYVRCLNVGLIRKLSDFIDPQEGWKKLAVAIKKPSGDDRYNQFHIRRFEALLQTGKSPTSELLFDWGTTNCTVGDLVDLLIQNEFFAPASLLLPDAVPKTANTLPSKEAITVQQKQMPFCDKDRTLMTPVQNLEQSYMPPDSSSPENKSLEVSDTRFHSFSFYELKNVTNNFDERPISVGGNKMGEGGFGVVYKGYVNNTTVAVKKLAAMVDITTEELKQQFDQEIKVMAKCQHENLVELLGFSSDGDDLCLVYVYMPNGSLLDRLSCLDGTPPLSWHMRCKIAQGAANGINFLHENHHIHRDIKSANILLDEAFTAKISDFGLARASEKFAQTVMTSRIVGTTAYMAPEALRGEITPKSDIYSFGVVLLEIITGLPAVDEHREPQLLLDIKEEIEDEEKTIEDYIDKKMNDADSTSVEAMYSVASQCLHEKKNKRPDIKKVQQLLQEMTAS

Row | Structure (SMILES) | IC50 (IRAK4) [µM] | EC50 [1] [µM] | IC50 [1] [µM]
1 | CC(C)(O)[C@H](F)CNC(=O)c1cnc(-n2ccc3cc(C#N)cnc32)cc1NCC(F)(F)F [Example 5, (R)-6-(5-cyano-1H-pyrrolo[2,3-b]pyridin-1-yl)-N-(2-fluoro-3-hydroxy-3-methylbutyl)-4-((2,2,2-trifluoroethyl)amino)nicotinamide] | 0.0023 | 0.078 | 0.095
2 | CC(C)(O)[C@H](F)CNC(=O)c1cnc(-n2ccc3cc(C#N)cnc32)cc1NC12CC3CC(CC(C3)C1)C2 [Example 13, 4-((1s,3S)-adamantan-1-ylamino)-6-(5-cyano-1H-pyrrolo[2,3-b]pyridin-1-yl)-N—((R)-2-fluoro-3-hydroxy-3-methylbutyl)nicotinamide] | 0.012 | 0.346 | 
3 | CC(C)Nc1cc(-n2ccc3cc(C#N)cnc32)ncc1C(=O)NC12CCC(O)(CC1)C2 [Example 14, 6-(5-cyano-1H-pyrrolo[2,3-b]pyridin-1-yl)-N-(4-hydroxybicyclo[2.2.1]heptan-1-yl)-4-(isopropylamino)nicotinamide] | 0.0148 | 0.286 | 
4 | CC(C)Nc1cc(-n2ccc3cc(C#N)cnc32)ncc1C(=O)NCCCOC(C)(C)C [Example 15, N-(3-(tert-butoxy)propyl)-6-(5-cyano-1H-pyrrolo[2,3-b]pyridin-1-yl)-4-(isopropylamino)nicotinamide] | 0.0055 | 0.171 | 
5 | CC(C)CCNc1cc(-n2ccc3cc(C#N)cnc32)ncc1C(=O)NC[C@@H](F)C(C)(C)O [Example 19, (R)-6-(5-cyano-1H-pyrrolo[2,3-b]pyridin-1-yl)-N-(2-fluoro-3-hydroxy-3-methylbutyl)-4-(isopentylamino) nicotinamide] | 0.0032 | 0.252 | 
6 | CC1(CNc2cc(-n3ccc4cc(C#N)cnc43)ncc2C(=O)NC[C@@H](F)C(C)(C)O)COC1 [Example 20, (R)-6-(5-cyano-1H-pyrrolo[2,3-b]pyridin-1-yl)-N-(2-fluoro-3-hydroxy-3-methylbutyl)-4-(((3-methyloxetan-3-yl)methyl)amino)nicotinamide] | 0.0057 | 0.497 | 
7 | CC(C)Nc1cc(-n2ccc3cc(C#N)cnc32)ncc1C(=O)NC[C@H](F)C(C)(C)O [Example 23, (S)-6-(5-cyano-1H-pyrrolo[2,3-b]pyridin-1-yl)-N-(2-fluoro-3-hydroxy-3-methylbutyl)-4-(isopropylamino)nicotinamide] | 0.0026 | 0.11 | 
8 | CC(C)(O)[C@H](F)CNC(=O)c1cnc(-n2ccc3cc(C#N)cnc32)cc1NCC1(O)CCC1 [Example 28, (R)-6-(5-cyano-1H-pyrrolo[2,3-b]pyridin-1-yl)-N-(2-fluoro-3-hydroxy-3-methylbutyl)-4-(((1-hydroxycyclobutyl)methyl)amino)nicotinamide] | 0.0028 | 0.08 | 
9 | CC(C)(O)[C@H](F)CNC(=O)c1cnc(-n2ccc3cc(C#N)cnc32)cc1NCC1COC1 [Example 29, (R)-6-(5-cyano-1H-pyrrolo[2,3-b]pyridin-1-yl)-N-(2-fluoro-3-hydroxy-3-methylbutyl)-4-((oxetan-3-ylmethyl)amino) nicotinamide] | 0.0037 | 0.141 | 
10 | CC(C)(O)[C@H](F)CNC(=O)c1cnc(-n2ccc3cc(Cl)cnc32)cc1NC1CCC1 [Example 31, (R)-6-(5-chloro-1H-pyrrolo[2,3-b]pyridin-1-yl)-4-(cyclobutylamino)-N-(2-fluoro-3-hydroxy-3-methylbutyl)nicotinamide] | 0.0034 | 0.367 | 1.08
11 | CCNc1cc(-n2ccc3cc(Cl)cnc32)ncc1C(=O)NC[C@@H](F)C(C)(C)O [Example 33, (R)-6-(5-chloro-1H-pyrrolo[2,3-b]pyridin-1-yl)-4-(ethylamino)-N-(2-fluoro-3-hydroxy-3-methylbutyl)nicotinamide] | 0.0071 | 0.661 | 0.403
12 | CC(C)(O)[C@H](F)CNC(=O)c1cnc(-n2ccc3cc(Cl)cnc32)cc1NC1CC1 [Example 34, (R)-6-(5-chloro-1H-pyrrolo[2,3-b]pyridin-1-yl)-4-(cyclopropylamino)-N-(2-fluoro-3-hydroxy-3-methylbutyl)nicotinamide] | 0.0053 | 0.18 | 0.407
13 | CC(C)(O)CCNC(=O)c1cnc(-n2ccc3cc(Cl)cnc32)cc1NC1CCOCC1 [Example 36, 6-(5-chloro-1H-pyrrolo[2,3-b]pyridin-1-yl)-N-(3-hydroxy-3-methylbutyl)-4-((tetrahydro-2H-pyran-4-yl)amino)nicotinamide] | 0.0031 | 0.133 | 
14 | CC(C)Nc1cc(-n2ccc3cc(Cl)ccc32)ncc1C(=O)NC[C@@H](F)C(C)(C)O [Example 37, (R)-6-(5-chloro-1H-indol-1-yl)-N-(2-fluoro-3-hydroxy-3-methylbutyl)-4-(isopropylamino)nicotinamide] | 0.0118 | 1.23 | 

Now those with a lower IC50 (IRAK4), led by results:

Row | IC50 (IRAK4) [µM] | Structure (SMILES) | EC50 [1] [µM] | IC50 [1] [µM]
15 | 0.001 | CC(C)(O)[C@H](F)CNC(=O)c1cnc(-n2ccc3cc(C#N)cnc32)cc1NC1CCC1 [Example 6, (R)-6-(5-cyano-1H-pyrrolo[2,3-b]pyridin-1-yl)-4-(cyclobutylamino)-N-(2-fluoro-3-hydroxy-3-methylbutyl) nicotinamide] | 0.243 | 0.243
16 | 0.0015 | C[C@@H](CO)Nc1cc(-n2ccc3cc(C#N)cnc32)ncc1C(=O)NC[C@@H](F)C(C)(C)O [Example 9, 6-(5-cyano-1H-pyrrolo[2,3-b]pyridin-1-yl)-N—((R)-2-fluoro-3-hydroxy-3-methylbutyl)-4-(((S)-1-hydroxypropan-2-yl)amino) nicotinamide] | 0.057 | 0.043
17 | 0.0018 | CC(C)(O)[C@H](F)CNC(=O)c1cnc(-n2ccc3cc(C#N)cnc32)cc1NC1CCCC1 [Example 10, (R)-6-(5-cyano-1H-pyrrolo[2,3-b]pyridin-1-yl)-4-(cyclopentylamino)-N-(2-fluoro-3-hydroxy-3-methylbutyl)nicotinamide] | 0.063 | 0.079
18 | 0.0017 | CC(C)Nc1cc(-n2ccc3cc(C#N)cnc32)ncc1C(=O)NCCC(C)(C)O [Example 11, 6-(5-cyano-1H-pyrrolo[2,3-b]pyridin-1-yl)-N-(3-hydroxy-3-methylbutyl)-4-(isopropylamino)nicotinamide] | 0.05 | 
19 | 0.0017 | CC(C)(O)CCNC(=O)c1cnc(-n2ccc3cc(C#N)cnc32)cc1NC1CCOCC1 [Example 12, 6-(5-cyano-1H-pyrrolo[2,3-b]pyridin-1-yl)-N-(3-hydroxy-3-methylbutyl)-4-((tetrahydro-2H-pyran-4-yl)amino)nicotinamide] | 0.122 | 
20 | 0.0012 | CC(C)(O)[C@H](F)CNC(=O)c1cnc(-n2ccc3cc(C#N)cnc32)cc1NC12CCC(O)(CC1)C2 [Example 16, (R)-6-(5-cyano-1H-pyrrolo[2,3-b]pyridin-1-yl)-N-(2-fluoro-3-hydroxy-3-methylbutyl)-4-((4-hydroxybicyclo[2.2.1]heptan-1-yl)amino)nicotinamide] | 0.015 | 
21 | 0.0012 | CC1(Nc2cc(-n3ccc4cc(C#N)cnc43)ncc2C(=O)NC[C@@H](F)C(C)(C)O)CC1 [Example 17, (R)-6-(5-cyano-1H-pyrrolo[2,3-b]pyridin-1-yl)-N-(2-fluoro-3-hydroxy-3-methylbutyl)-4-((1-methylcyclopropyl)amino)nicotinamide] | 0.042 | 
22 | 0.0021 | CCCNc1cc(-n2ccc3cc(C#N)cnc32)ncc1C(=O)NC[C@@H](F)C(C)(C)O [Example 18] | 0.062 | 
23 | 0.0022 | CC(C)(O)[C@H](F)CNC(=O)c1cnc(-n2ccc3cc(C#N)cnc32)cc1N[C@@H]1CCC[C@H]1O [Example 30, 6-(5-cyano-1H-pyrrolo[2,3-b]pyridin-1-yl)-N—((R)-2-fluoro-3-hydroxy-3-methylbutyl)-4-(((1R,2R)-2-hydroxycyclopentyl)amino)nicotinamide] | 0.101 | 0.184
24 | 0.0019 | CC(C)(O)[C@H](F)CNC(=O)c1cnc(-n2ccc3cc(Cl)cnc32)cc1NC1CCOCC1 [Example 32, (R)-6-(5-chloro-1H-pyrrolo[2,3-b]pyridin-1-yl)-N-(2-fluoro-3-hydroxy-3-methylbutyl)-4-((tetrahydro-2H-pyran-4-yl)amino) nicotinamide] | 0.075 | 0.562
25 | 0.0021 | CC(C)(O)CNc1cc(-n2ccc3cc(Cl)cnc32)ncc1C(=O)NC[C@@H](F)C(C)(C)O [Example 35, (R)-6-(5-chloro-1H-pyrrolo[2,3-b]pyridin-1-yl)-N-(2-fluoro-3-hydroxy-3-methylbutyl)-4-((2-hydroxy-2-methylpropyl)amino)nicotinamide] | 0.117 | 0.452
26 | 0.0016 | CC(C)Nc1cc(-n2ccc3cc(F)cnc32)ncc1C(=O)NC[C@@H](F)C(C)(C)O [Example 38, (R)-6-(5-fluoro-1H-pyrrolo[2,3-b]pyridin-1-yl)-N-(2-fluoro-3-hydroxy-3-methylbutyl)-4-(isopropylamino)nicotinamide] | 0.084 | 
27 | 0.0011 | CC(C)Nc1cc(-n2ccc3cncnc32)ncc1C(=O)NC[C@@H](F)C(C)(C)O [Example 39, (R)—N-(2-fluoro-3-hydroxy-3-methylbutyl)-4-(isopropylamino)-6-(7H-pyrrolo[2,3-d]pyrimidin-7-yl)nicotinamide] | 0.151 | 0.151
